Key:
[1] = tested on: Rat embryonic cortical neurons; assay: Neuritic atrophy caused by 4-HNE, Scholl ring analysis; type: cell-based; conditions: pre-treatment 2 days (1 μM; ascorbate 100 μM), then 25 μM 4-HNE 1 day
Procedure: Rat embryonic cortical neurons were treated with mock (FIG. 11C), 1 μM HA-GAGR (high acyl gellan gum), 1 μM dextran, 100 μM ascorbate or 1 μM midi-GAGR (FIG. 13A) for 2 days and then with 25 μM 4-hydroxynonenal (4-HNE), a lipid peroxide, for 1 day. After fixation, neurons were immunostained with anti-synaptophysin antibody (green) and rhodamine-phalloidin (actin: red). Scholl ring analysis was performed.

FGFR1 = target: T1, FGFR1 (Mus musculus, UniProt P16092); assay: Affinity chromatography with midi-GAGR- or dextran-conjugated sepharose beads, FGFR1 immunoblot; type: binding; conditions: brain extract in 0.5% Igepal PMEE buffer
T1 construct: Whole mouse brains were homogenized for cytosol extraction in PMEE buffer containing 1% Igepal CA-630; from tissue; host or cells: mouse cerebral cortex / whole brain detergent extract
Procedure: To examine whether midi-GAGR interacts with synaptosomal FGFR1 or not, an affinity chromatography using midi-GAGR-conjugated sepharose beads was performed. Either midi-GAGR or dextran were conjugated to epoxy-activated sepharose 6B that is a pre-activated medium that can be conjugated to the hydroxyl groups of carbohydrates. Briefly, 200 μL of 7.4 mM midi-GAGR or 5 kD dextran in H2O was mixed with 200 μL of epoxy-activated sepharose beads in a microtube and incubated on a rotator (16 h, 37° C.). The mixture was spun down at 1,000×g (10 min) to separate bead-bound polysaccharides from unbound. Unoccupied active sites on beads were blocked by incubation (4 h, 45° C.) in 1 M ethanolamine (pH 8). Then, beads were washed with three cycles of alternating pH solutions—0.1 M acetate buffer (pH 4) and 0.1 M Tris-HCl buffer (pH 8), both containing 0.5 M NaCl. The conjugation of polysaccharides to beads was confirmed by phenol-sulfuric acid colorimetry. Cerebral cortices were dissected from four female mice (BALB/C, 8 wks old) and homogenized with a hand grinder in 1 mL of PMEE homogenization buffer plus 1% Igepal CA-630 and protease inhibitors (PIs). The homogenate was centrifuged at 1,000×g (10 min) to remove nuclei and undisrupted cells. The supernatant was subjected to 5-6 strokes through 27 G needle. Post-nuclear supernatant was centrifuged at 1,000×g (15 min). […]

[2] = tested on: phosphorylated CREB in mouse embryonic cortical neurons; assay: Nuclear p-CREB immunostaining in cortical neurons (Example 2); type: cell-based; conditions: 1 μM, 24 h
Procedure: Differentiated PC12 cells and mouse embryonic cortical neurons (E17, DIV14) were treated with mock, dextran, alginate, HA-GAGR or midi-GAGR (1 μM) for 24 h and fixed in 3.7% paraformaldehyde. The fixed cells and neurons were immunostained with antibodies against α-tubulin and phosopho-CREB (p-CREB) along with DAPI (nucleus).

T1 sequence (P16092 22-822): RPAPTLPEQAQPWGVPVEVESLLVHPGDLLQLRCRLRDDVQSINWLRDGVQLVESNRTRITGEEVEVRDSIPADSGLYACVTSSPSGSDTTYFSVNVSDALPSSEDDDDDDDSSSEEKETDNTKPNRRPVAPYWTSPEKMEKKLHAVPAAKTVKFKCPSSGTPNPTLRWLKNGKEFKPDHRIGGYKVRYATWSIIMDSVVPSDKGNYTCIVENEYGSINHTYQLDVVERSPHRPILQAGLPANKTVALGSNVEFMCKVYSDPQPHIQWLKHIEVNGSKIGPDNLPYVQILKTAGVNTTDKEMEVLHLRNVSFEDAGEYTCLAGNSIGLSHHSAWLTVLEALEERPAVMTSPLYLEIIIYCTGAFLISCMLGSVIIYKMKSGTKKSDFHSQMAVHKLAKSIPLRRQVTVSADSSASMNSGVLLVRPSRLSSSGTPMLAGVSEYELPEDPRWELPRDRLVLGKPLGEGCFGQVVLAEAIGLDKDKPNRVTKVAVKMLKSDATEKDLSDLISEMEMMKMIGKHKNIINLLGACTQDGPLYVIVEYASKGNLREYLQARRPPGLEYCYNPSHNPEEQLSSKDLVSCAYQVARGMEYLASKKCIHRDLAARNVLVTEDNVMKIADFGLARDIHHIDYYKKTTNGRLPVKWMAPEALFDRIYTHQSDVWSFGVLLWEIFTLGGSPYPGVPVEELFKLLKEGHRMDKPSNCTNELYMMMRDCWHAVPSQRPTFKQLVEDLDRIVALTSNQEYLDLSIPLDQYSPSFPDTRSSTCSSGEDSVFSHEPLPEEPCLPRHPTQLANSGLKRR

## dextran
[1]
  neurites in the presence of 4-HNE (neuritic atrophy): lost neuritis
FGFR1
  FGFR1 eluted from polysaccharide-conjugated beads: not from dextran beads
[2]
  increase of the levels of nuclear p-CREB: not significantly increased

From US10792301B2, “Therapeutic polysaccharide midi-GAGR and related materials and methods” (priority 2015, dated 2020)
